Source: patent publication US7550629B2, “Trifluoromethyl-containing phenylsulfonamide beta amyloid inhibitors” (Wyeth, priority 2006, dated 2009)

Experiments:
beta amyloid 40 = test: Aβ40/42 ELISA Assay: Aβ40; type: cell-based; settings: Cricetulus griseus; CHO cells carrying the APP-REP-NL plasmid, 22 hours, sandwich ELISA of medium
Procedure: (§1) Pharmacology: Aβ40/42 ELISA Assay
(§2) Compounds are diluted from DMSO stocks to 2 μM and below in a cell culture medium. Compounds are then applied to CHO cells carrying the APP-REP-NL plasmid [Sudhir et. al, J. Biol. Chem. 267:25602-25608 (1992)] for a period of 22 hours. After the conditioning period, medium is collected, diluted in assay buffer containing protein, and samples, controls, and synthetic peptide standards are incubated on a prepared ELISA plate. Using a sandwich ELISA with antibodies specifically directed against the carboxyl terminus of beta amyloid 40 or 42 [analogous to the method reported by Haugabook et al., J. Neurosci. Methods 108:171-179 (2001) but using goat anti-mouse IgGl (source: Southern Biotech) as the anchor, 6E10 as the capture antibody (Source: SENETEK), rabbit antiαβ40 and antiαβB42 (source: QCB) and APL-donkey anti-rabbit IgG (H+L, source: Southern Biotech) as the detection antibody], the effect of the compound treatment on the cellular production of extracellular beta amyloid is quantified. Cells treated with compound are subsequently incubated in cell culture medium containing […]. After a short incubation period, MTS/medium containing plates are read in a spectrophotometer to determine the extent to which compound toxicity affected the cell's metabolism and ability to synthesize beta amyloid.
(§3) Test Samples: compound samples are supplied as 20 mM stock solutions in a 100% DMSO solution.
(§4) APP-REP-NL cells: Qualified cell lines are carried from week to week using 1:100 dilutions and are cultured in DMEM supplemented with 1× antibiotic/antimycotic, 200 μg/ml of G418 antibiotic, and 10% certified fetal calf serum. Cells are also banked in liquid nitrogen. Periodically, beta amyloid production is assessed, and cells are either kept in culture or replaced with progenitors at full expression.
(§5) Antibodies: Are from certified lots that have already been qualified in this assay. Antibodies are stored in small frozen aliquots at −80° C. that are thawed and used.
(§6) A compound is considered active if it has an EC50 for Aβ 40 reduction of <100 μM and no toxicity at doses in the vicinity the EC50.

beta amyloid 42 = test: Aβ40/42 ELISA Assay: Aβ42; type: cell-based; settings: Cricetulus griseus; CHO cells carrying the APP-REP-NL plasmid, 22 hours, sandwich ELISA of medium
Procedure: as §1, §2, §3, §4, §5, §6

EC50 (beta amyloid 40) [nM] | EC50 (beta amyloid 42) [nM] | melting point [°C] | SMILES
334 | 204 | 186 to 187 | O=S(=O)(N[C@H](CO)C(CC(F)(F)F)CC(F)(F)F)c1ccc(Cl)cc1 [Example 2, 4-Chloro-N-[(1S)-4,4,4-trifluoro-1-hydroxymethyl-2-(2,2,2-trifluoro-ethyl)-butyl]-benzenesulfonamide]
1400 | 1170 |  | C[C@@H]([C@@H](CO)NS(=O)(=O)c1ccc(C(F)(F)F)cc1)C(F)(F)F [Example 47, N-[(1S,2S)-3,3,3-Trifluoro-1-(hydroxymethyl)-2-methylpropyl]-4-(trifluoromethyl)benzenesulfonamide]
651 | 563 |  | C[C@@H]([C@@H](CO)NS(=O)(=O)c1ccc(F)cc1)C(F)(F)F [Example 48, 4-Fluoro-N-[(1S,2S)-3,3,3-trifluoro-1-(hydroxymethyl)-2-methylpropyl]benzenesulfonamide]
